The values that follow come from patent US20230203506A1, “LACTIC ACID OPTICAL PROBE, PREPARATION METHOD THEREFOR AND APPLICATION THEREOF” (East China University of Science and Technology, priority 2019, published 2023).

A short description of experiment [1]: Lactate response detection of purified probe (signal with 10 mM lactate divided by signal without lactate). The format is biochemical. The conditions noted are these: M185 saturation mutants of two-site mutants of LldR(80-258)-185/189-cpYFP.
Assay in experiment [2]: as above
To be noted: detection signal with 10 mM lactate divided by signal without lactate; mutants of LldR(80-258)-185/189-cpYFP. The format is biochemical. As for the experimental part: 4. After purified proteins were subjected to SDS-PAGE, probes were diluted to a protein solution having a final concentration of 5-10 μM using assay buffer (100 mm HEPES, 100 mM NaCl, pH 7.3) or phosphate buffer PBS.
(§1) 6. […] The fluorescence excitation and emission determination of the samples were done using a multifunctional fluorescence microplate reader.
Mutants of the two sites, 189 and 190, were constructed on the basis of LldR(80-258)-185/189-cpYFP. Plasmid pCDFDuet-LldR(80-258)-185/189-cpYFP was linearized by reverse PCR, mutations were introduced at mutation sites by primers, and the obtained PCR products was ligated by adding phosphorus with PNK, T4 DNA ligase, and PEG4000, transformed into BL21 (DE3), and then screened. […] Exemplary nucleic acid sequences were shown in SEQ ID No: 31 (LldR(80-258)-185/189-P189F/P190D-cpYFP).

The nature of experiment [3]: Lactate concentration-gradient titration of purified probe (ratio of 420 nm to 485 nm excitation, 528 nm emission). To be noted: ratio 420 nm/485 nm excitation. Format: binding.
Text: as §1

Take “M185F/P189H/P190D: three-site mutant of LldR(80-258)-185/189-cpYFP”: in experiment [1], the “Response of the three-site mutants to lactate” value was found to be 8.0. Regarding “P189F/P190H: LldR(80-258)-185/189-cpYFP mutant”, the “Responses to lactate for 189 mutant versus 190 mutant” value in experiment [2] is 3.7. For the substance “P189S: LldR(80-258)-185/189-cpYFP mutant”, in experiment [2], the “Responses to lactate for 189 mutant versus 190 mutant” value came to 3.3. Consider “P189C/P190Y: LldR(80-258)-185/189-cpYFP mutant”, for which the magnitude of change in experiment [3] was 4.3 fold. Besides, in experiment [3] (read-out: Kd (binding constant)), the Kd came out at 41 µM. The “Responses to lactate for 189 mutant versus 190 mutant” value in experiment [2] is 4.0.

As for “P189F/P190D: LldR(80-258)-185/189-cpYFP mutant”, the “Responses to lactate for 189 mutant versus 190 mutant” value in experiment [2] was found to be 13.4. As to “M185A/P189M/P190D: three-site mutant of LldR(80-258)-185/189-cpYFP; Table 4 row printed WD”, the “Response of the three-site mutants to lactate” value in experiment [1] came to 8.4. Consider “P189N: LldR(80-258)-185/189-cpYFP mutant”, for which, in experiment [2], the “Responses to lactate for 189 mutant versus 190 mutant” value stood at 2.1. In the case of “M185L/P189M/P190D: three-site mutant of LldR(80-258)-185/189-cpYFP; Table 4 row printed WD”, the “Response of the three-site mutants to lactate” value in experiment [1] stood at 5.6. On to “P189N/P190F: LldR(80-258)-185/189-cpYFP mutant”, for which the “Responses to lactate for 189 mutant versus 190 mutant” value in experiment [2] is reported as 2.3.

Consider “M185L/P189H/P190D: three-site mutant of LldR(80-258)-185/189-cpYFP”, for which the “Response of the three-site mutants to lactate” value in experiment [1] is given as 15.3. For the substance “P189H/P190D: LldR(80-258)-185/189-cpYFP mutant”, the “Responses to lactate for 189 mutant versus 190 mutant” value in experiment [2] came to 8.9.

For “P189H/P190R: LldR(80-258)-185/189-cpYFP mutant”, the “Responses to lactate for 189 mutant versus 190 mutant” value in experiment [2] was found to be 3.2. As to “M185V/P189H/P190D: three-site mutant of LldR(80-258)-185/189-cpYFP”, the “Response of the three-site mutants to lactate” value in experiment [1] is given as 6.2.

With “M185S/P189H/P190D: three-site mutant of LldR(80-258)-185/189-cpYFP”, the “Response of the three-site mutants to lactate” value in experiment [1] is 7.0. Consider “P189/P190(WT): lactate optical probe, cpYFP inserted at 185/189 of LldR(80-258), unmutated”, for which the “Responses to lactate for 189 mutant versus 190 mutant” value in experiment [2] is reported as 0.2. For “P189R/P190I: LldR(80-258)-185/189-cpYFP mutant”, in experiment [2], the “Responses to lactate for 189 mutant versus 190 mutant” value is recorded as 3.5. As to “P189M/P190D: LldR(80-258)-185/189-cpYFP mutant”, the “Responses to lactate for 189 mutant versus 190 mutant” value in experiment [2] was 7.0. For the substance “P189C/P190F: LldR(80-258)-185/189-cpYFP mutant”, the “Responses to lactate for 189 mutant versus 190 mutant” value in experiment [2] is given as 2.3.

Take “P189N/P190Y: LldR(80-258)-185/189-cpYFP mutant”: the “Responses to lactate for 189 mutant versus 190 mutant” value in experiment [2] is recorded as 3.1.

A word on the Kd: it is the concentration at which binding is half-saturated.
